Source: PMC11995724, “Antibiotic target discovery by integrated phenotypic and activity-based profiling of electrophilic fragments” (Cell chemical biology, 2025)

assay: in vitro; details: human, hek293t cells

Question: For `C=CC(=O)NC[C@@H]1C=C[C@H]2C[C@@H]1CO2` (racemic) [1-I03, rac-N-{[(1R,2S,5S)-6-oxabicyclo[3.2.1]oct-3-en-2-yl]methyl}prop-2-enamide], which viability at 48 h, 25 µM is on record?
Answer: 78.1%

Question: Which viability at 48 h, 25 µM does the source give for `C=CC(=O)N(Cc1cc2cccc(OC)c2o1)[C@@H]1C[C@H]2CC[C@@H]1O2` (racemic) [1-J13, rac-N-[(7-methoxy-1-benzofuran-2-yl)methyl]-N-[(1R,2S,4S)-7-oxabicyclo[2.2.1]heptan-2-yl]prop-2-enamide] here?
Answer: 172%

Question: With `C=CC(=O)N(C)CC(=O)N1CCC[C@H](NC(=O)C(F)(F)F)[C@@H]1C` (racemic) [2-A20, rac-N-methyl-N-{2-[(2R,3R)-2-methyl-3-(2,2,2-trifluoroacetamido)piperidin-1-yl]-2-oxoethyl}prop-2-enamide] as the molecule, how does the viability at 48 h, 25 µM read?
Answer: 96%

Question: For `C=CC(=O)N1CCC(C(=O)N[C@H]2CCO[C@H](c3ccccn3)C2)CC1` (racemic) [2-G15, rac-1-(prop-2-enoyl)-N-[(2R,4R)-2-(pyridin-2-yl)oxan-4-yl]piperidine-4-carboxamide], which viability at 48 h, 25 µM is on record?
Answer: 66.9%

Question: For `C=CC(=O)N[C@H]1CCCC[C@H]1c1ccnn1C` (racemic) [2-G18, rac-N-[(1R,2S)-2-(1-methyl-1H-pyrazol-5-yl)cyclohexyl]prop-2-enamide], which viability at 48 h, 25 µM is on record?
Answer: 103%

Question: With `C=CC(=O)N1CCC(C(=O)N[C@H]2CCO[C@@H]2c2cccnc2)CC1` (racemic) [2-G20, rac-1-(prop-2-enoyl)-N-[(2R,3S)-2-(pyridin-3-yl)oxolan-3-yl]piperidine-4-carboxamide] as the molecule, how does the viability at 48 h, 25 µM read?
Answer: 92.2%

Question: With `C=CC(=O)N1CCC(C(=O)N[C@H]2CC[C@@H](CC#N)C2)CC1` (racemic) [2-G21, rac-N-[(1R,3S)-3-(cyanomethyl)cyclopentyl]-1-(prop-2-enoyl)piperidine-4-carboxamide] as the molecule, how does the viability at 48 h, 25 µM read?
Answer: 71.9%

Question: With `C=CC(=O)N1CCC(C(=O)N[C@H]2CCCCCC[C@H]2C(=O)OC)CC1` (racemic) [2-H06, rac-methyl (1R,2S)-2-[1-(prop-2-enoyl)piperidine-4-amido]cyclooctane-1-carboxylate] as the molecule, how does the viability at 48 h, 25 µM read?
Answer: 94.4%

Question: For `C=CC(=O)N1CCC(C(=O)N[C@@H]2CC[C@H](O)C2)(c2ccccc2)CC1` (racemic) [2-H16, rac-N-[(1R,3S)-3-hydroxycyclopentyl]-4-phenyl-1-(prop-2-enoyl)piperidine-4-carboxamide], which viability at 48 h, 25 µM is on record?
Answer: 59.9%

Question: With `C=CC(=O)N1C[C@H](NC(C)=O)[C@@H](c2ccnn2C)C1` (racemic) [2-M16, rac-N-[(3R,4S)-4-(1-methyl-1H-pyrazol-5-yl)-1-(prop-2-enoyl)pyrrolidin-3-yl]acetamide] as the molecule, how does the viability at 48 h, 25 µM read?
Answer: 96%

Question: For `C=CC(=O)Nc1ccc(C(=O)N[C@H]2COC[C@@H]2OC)cc1` (racemic) [3-C08, rac-N-[(3R,4S)-4-methoxyoxolan-3-yl]-4-(prop-2-enamido)benzamide], which viability at 48 h, 25 µM is on record?
Answer: 85.1%

Question: With `C=CC(=O)N(C)[C@H]1CS(=O)(=O)C[C@@H]1O` (racemic) [3-C15, rac-N-[(3R,4R)-4-hydroxy-1,1-dioxo-1lambda6-thiolan-3-yl]-N-methylprop-2-enamide] as the molecule, how does the viability at 48 h, 25 µM read?
Answer: 46%

Question: For `C=CC(=O)N1CCC(C(=O)N[C@H]2CC[C@@H]2O)(c2ccccc2)CC1` (racemic) [3-G08, rac-N-[(1R,2R)-2-hydroxycyclobutyl]-4-phenyl-1-(prop-2-enoyl)piperidine-4-carboxamide], which viability at 48 h, 25 µM is on record?
Answer: 104%

Question: Which viability at 48 h, 25 µM does the source give for `C=CC(=O)N[C@H]1CCO[C@@H]1c1ccnn1C(C)C` (racemic) [3-K05, rac-N-[(2R,3R)-2-[1-(propan-2-yl)-1H-pyrazol-5-yl]oxolan-3-yl]prop-2-enamide] here?
Answer: 52.7%

Question: With `COCc1nnc([C@]23CC[C@H]2CCN3C(=O)C(C)Cl)o1` (mixture of isomers) [5-H15, rac-2-chloro-1-[(1R,5R)-1-[5-(methoxymethyl)-1,3,4-oxadiazol-2-yl]-2-azabicyclo[3.2.0]heptan-2-yl]propan-1-one] as the molecule, how does the viability at 48 h, 25 µM read?
Answer: 108%
